Laboratory results as given in patent US11020397B2, “Compounds and their use for reducing uric acid levels” (Acquist LLC, priority 2016, dated 2021).
Where two headings read alike, the source gives them in different places.

Target: Xanthine oxidase (Homo sapiens (Human), UniProt P47989)
Experiment: Fluorescence-based xanthine oxidase activity assay
Format: biochemical
Settings: for Xanthine oxidase inhibition, verbal rating: compared to allopurinol
[1] = unit nM, read-out: Xanthine Oxidase IC50

Sequence of Xanthine oxidase (P47989 whole entry, species assumed): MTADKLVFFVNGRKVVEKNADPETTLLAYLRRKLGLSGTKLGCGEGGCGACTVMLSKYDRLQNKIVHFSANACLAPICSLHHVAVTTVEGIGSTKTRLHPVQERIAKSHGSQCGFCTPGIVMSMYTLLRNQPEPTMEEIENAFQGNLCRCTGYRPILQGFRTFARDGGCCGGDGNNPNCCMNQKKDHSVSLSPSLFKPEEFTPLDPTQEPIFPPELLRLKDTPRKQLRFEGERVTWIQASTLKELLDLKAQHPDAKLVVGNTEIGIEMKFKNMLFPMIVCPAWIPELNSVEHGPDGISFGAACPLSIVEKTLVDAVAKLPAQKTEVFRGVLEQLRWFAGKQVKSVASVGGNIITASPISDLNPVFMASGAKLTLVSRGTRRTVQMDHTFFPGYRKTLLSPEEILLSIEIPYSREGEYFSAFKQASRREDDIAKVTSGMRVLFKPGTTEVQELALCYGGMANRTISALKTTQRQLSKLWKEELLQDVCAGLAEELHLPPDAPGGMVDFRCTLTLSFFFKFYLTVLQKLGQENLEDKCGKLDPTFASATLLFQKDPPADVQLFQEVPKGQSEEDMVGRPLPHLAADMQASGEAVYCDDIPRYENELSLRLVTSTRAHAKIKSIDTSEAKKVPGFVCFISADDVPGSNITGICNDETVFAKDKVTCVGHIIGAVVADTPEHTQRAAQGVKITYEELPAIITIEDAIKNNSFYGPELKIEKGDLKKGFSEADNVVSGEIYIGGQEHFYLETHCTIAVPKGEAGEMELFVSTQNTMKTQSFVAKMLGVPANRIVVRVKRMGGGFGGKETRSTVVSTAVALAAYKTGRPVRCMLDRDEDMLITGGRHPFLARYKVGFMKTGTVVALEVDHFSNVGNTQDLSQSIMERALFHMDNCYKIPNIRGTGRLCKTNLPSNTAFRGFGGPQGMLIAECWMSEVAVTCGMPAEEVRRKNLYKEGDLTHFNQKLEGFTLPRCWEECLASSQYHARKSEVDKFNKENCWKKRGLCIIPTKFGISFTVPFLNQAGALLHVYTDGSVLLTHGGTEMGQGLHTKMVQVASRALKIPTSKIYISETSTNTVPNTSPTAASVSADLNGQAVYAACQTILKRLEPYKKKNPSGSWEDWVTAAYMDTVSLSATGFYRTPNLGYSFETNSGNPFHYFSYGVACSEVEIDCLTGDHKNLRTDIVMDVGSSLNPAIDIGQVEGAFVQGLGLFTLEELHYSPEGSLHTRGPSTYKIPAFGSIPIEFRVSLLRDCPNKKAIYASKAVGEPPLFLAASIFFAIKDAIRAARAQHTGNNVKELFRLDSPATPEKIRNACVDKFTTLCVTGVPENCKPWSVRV

| Structure (SMILES) | IC50 | IC50 [1] | Xanthine oxidase inhibition, verbal rating |
| --- | --- | --- | --- |
| CSc1nc(O)c(C(=O)Nc2ccc(-c3c[nH]nn3)cc2OC(F)(F)F)c(=O)[nH]1 [Formula (II3), N-(4-(1H-1,2,3-triazol-4-yl)-2-(trifluoromethoxy)phenyl)-4-hydroxy-2-(methylthio)-6-oxo-1,6-dihydropyrimidine-5-carboxamide] | 60 nM | – | – |
| CSc1nc(O)c(C(=O)Nc2ccc(-c3c[nH]nn3)cc2OC(F)F)c(=O)[nH]1 [Formula (II4), N-(2-(difluoromethoxy)-4-(1H-1,2,3-triazol-4-yl)phenyl)-4-hydroxy-2-(methylthio)-6-oxo-1,6-dihydropyrimidine-5-carboxamide] | 60 nM | – | – |
| CSc1nc(O)c(C(=O)Nc2ccc(-c3c[nH]nn3)cc2C#N)c(=O)[nH]1 [Formula (II5), N-(2-cyano-4-(1H-1,2,3-triazol-4-yl)phenyl)-4-hydroxy-2-(methylthio)-6-oxo-1,6-dihydropyrimidine-5-carboxamide] | 40 nM | – | – |
| CSc1nc(O)c(C(=O)Nc2ccc(-c3c[nH]nn3)c(C(F)(F)F)c2)c(=O)[nH]1 [Formula (II6), N-(4-(1H-1,2,3-Triazol-4-yl)-3-(trifluoromethyl)phenyl)-4-hydroxy-2-(methylthio)-6-oxo-1,6-dihydropyrimidine-5-carboxamide] | – | > 10000 nM | – |
| CC(C)Sc1nc(O)c(C(=O)Nc2ccc(-c3c[nH]nn3)cc2C(F)(F)F)c(=O)[nH]1 [Formula (II7), N-(4-(1H-1,2,3-Triazol-5-yl)-2-(trifluoromethyl)phenyl)-4-hydroxy-2-(isopropyl-thio)-6-oxo-1,6-dihydropyrimidine-5-carboxamide] | 70 nM | – | – |
| CSc1nc(O)c(C(=O)Nc2ncc(-c3c[nH]nn3)cc2C(F)(F)F)c(=O)[nH]1 [Formula (II8), N-(5-(1H-1,2,3-triazol-4-yl)-3-(trifluoromethyl)pyridin-2-yl)-4-hydroxy-2-(methylthio)-6-oxo-1,6-dihydropyrimidine-5-carboxamide] | 60 nM | – | – |
| CSc1nc(O)c(C(=O)Nc2ccc3nc(-c4c[nH]nn4)ccc3c2)c(=O)[nH]1 [Formula (II10), N-(2-(1H-1,2,3-triazol-4-yl)quinolin-6-yl)-4-hydroxy-2-(methylthio)-6-oxo-1,6-dihydropyrimidine-5-carboxamide] | 190 nM | – | – |
| CSc1nc(O)c(C(=O)Nc2ccc(-c3c[nH]nn3)c(F)c2F)c(=O)[nH]1 [Formula (IIaa), N-(2,3-difluoro-4-(1H-1,2,3-triazol-4-yl)phenyl)-4,6-dihydroxy-2-(methylthio) pyrimidine-5-carboxamide] | 103 nM | – | – |
| CN(C)CCSc1nc(O)c(C(=O)Nc2ccc(-c3c[nH]nn3)cc2F)c(=O)[nH]1 [Formula (IIbb), 2-((2-(dimethylamino)ethyl)thio)-N-(2-fluoro-4-(1H-1,2,3-triazol-4-yl)phenyl)-4-hydroxy-6-oxo-1,6-dihydropyrimidine-5-carboxamide] | 206 nM | – | – |
| CC(C)Sc1nc(O)c(C(=O)Nc2ccc(-c3c[nH]nn3)cc2)c(=O)[nH]1 [Formula (IIi), N-(4-(1H-1,2,3-triazol-5-yl)phenyl)-4-hydroxy-2-(isopropylthio)-6-oxo-1,6-dihydropyrimidine-5-carboxamide] | – | < 20 nM | particularly potent inhibitors of xanthine oxidase compared to allopurinol |
| CSc1nc(O)c(C(=O)Nc2ccc(-c3c[nH]nn3)nc2)c(=O)[nH]1 [Formula (IIii), N-(6-(1H-1,2,3-triazol-4-yl)pyridin-3-yl)-4-hydroxy-2-(methylthio)-6-oxo-1,6-dihydropyrimidine-5-carboxamide] | 377 nM | – | particularly potent inhibitors of xanthine oxidase compared to allopurinol |
| O=C(Nc1ccc(-c2c[nH]nn2)cc1)c1c(O)nc(SC(F)(F)F)[nH]c1=O [Formula (IIj)] | – | > 300000 nM | – |
| CCSc1nc(O)c(C(=O)Nc2ccc(-c3c[nH]nn3)cc2)c(=O)[nH]1 [Formula (IIl), N-(4-(1H-1,2,3-triazol-4-yl)phenyl)-2-(ethylthio)-4-hydroxy-6-oxo-1,6-dihydropyrimidine-5-carboxamide] | – | < 20 nM | particularly potent inhibitors of xanthine oxidase compared to allopurinol |
| O=C(Nc1ccc(-c2c[nH]nn2)cc1)c1c(O)nc(SCC2CC2)[nH]c1=O [Formula (IIo), N-(4-(1H-1,2,3-triazol-4-yl)phenyl)-2-((cyclopropylmethyl)thio)-4,6-dioxo-1,4,5,6-tetrahydropyrimidine-5-carboxamide] | 1140 nM | – | – |
| CCSc1nc(O)c(C(=O)Nc2ccc(-c3nn[nH]n3)cc2)c(=O)[nH]1 [Formula (IIp), N-(4-(1H-tetrazol-5-yl)phenyl)-2-(ethylthio)-4-hydroxy-6-oxo-1,6-dihydropyrimidine-5-carboxamide] | 200 nM | – | particularly potent inhibitors of xanthine oxidase compared to allopurinol |
| CC(C)CSc1nc(O)c(C(=O)Nc2ccc(-c3c[nH]nn3)cc2)c(=O)[nH]1 [Formula (IIq), N-(4-(1H-1,2,3-triazol-4-yl)phenyl)-4-hydroxy-2-(isobutylthio)-6-oxo-1,6-dihydropyrimidine-5-carboxamide] | 40 nM | – | particularly potent inhibitors of xanthine oxidase compared to allopurinol |
| CSc1nc(O)c(C(=O)Nc2ccc(-c3c[nH]nn3)c(F)c2)c(=O)[nH]1 [Formula (IIr), N-(3-Fluoro-4-(1H-1,2,3-triazol-4-yl)phenyl)-4-hydroxy-2-(methylthio)-6-oxo-1,6-dihydropyrimidine-5-carboxamide] | 210 nM | – | particularly potent inhibitors of xanthine oxidase compared to allopurinol |
| CSc1nc(O)c(C(=O)Nc2ccc(-c3c[nH]nn3)cc2F)c(=O)[nH]1 [Formula (IIs), N-(2-Fluoro-4-(1H-1,2,3-triazol-4-yl)phenyl)-4-hydroxy-2-(methylthio)-6-oxo-1,6-dihydropyrimidine-5-carboxamide] | 120 nM | – | particularly potent inhibitors of xanthine oxidase compared to allopurinol |
| CSc1nc(O)c(C(=O)Nc2c(F)cc(-c3c[nH]nn3)cc2F)c(=O)[nH]1 [Formula (IIt), N-(2,6-Difluoro-4-(1H-1,2,3-triazol-4-yl)phenyl)-4-hydroxy-2-(methylthio)-6-oxo-1,6-dihydropyrimidine-5-carboxamide] | 180 nM | – | particularly potent inhibitors of xanthine oxidase compared to allopurinol |
| CC(C)Sc1nc(O)c(C(=O)Nc2ccc(-c3c[nH]nn3)cc2F)c(=O)[nH]1 [Formula (IIv), N-(2-Fluoro-4-(1H-1,2,3-triazol-4-yl)phenyl)-4-hydroxy-2-(isopropylthio)-6-oxo-1,6-dihydropyrimidine-5-carboxamide] | 100 nM | – | – |
| CC(C)Sc1nc(O)c(C(=O)Nc2ccc(-c3c[nH]nn3)c(F)c2)c(=O)[nH]1 [Formula (IIw), N-(3-Fluoro-4-(1H-1,2,3-triazol-4-yl)phenyl)-4-hydroxy-2-(isopropylthio)-6-oxo-1,6-dihydropyrimidine-5-carboxamide] | 660 nM | – | – |
| O=C(Nc1ncc(-c2c[nH]nn2)s1)c1c(O)[nH]c(=O)[nH]c1=O [Formula (Io), N-(5-(1H-1,2,3-Triazol-4-yl)thiazol-2-yl)-2,4,6-trihydroxypyrimidine-5-carboxamide] | 5300 nM | – | – |
